For 1 compound, Kd and pEC50 results are on record in PMC4523340 (British Journal of Pharmacology, 2015).

In general, pEC50 refers to −log10 of the EC50, conventionally taken in molar units. High values mean a small EC50, low ones a large EC50.

Each structure is given as a SMILES string. Counter-ions that a name gives are not always drawn.

Assay [1] deals with T1, 5-HT7(b) receptor (Homo sapiens, UniProt P34969). The assay can be described thus: saturation radioligand binding, membranes. The following applies: read-out: [^3H]-mesulergine / Kd; labelled compound; stable HEK293.
The next assay has as its target 5-HT7(d) receptor (Homo sapiens, UniProt P34969). The assay is described as follows: saturation radioligand binding, membranes. The conditions noted are these: read-out: [^3H]-mesulergine / Kd; labelled compound; stable HEK293.
For a further assay, the target named is 5-HT7(a) receptor (Homo sapiens, UniProt P34969). The assay is described as follows: saturation radioligand binding, membranes. The following applies: read-out: [^3H]-mesulergine / Kd; labelled compound; stable HEK293.
Assay [2] has as its target T1, 5-HT7(b) receptor.

T1 sequence (P34969 1-432 limits assumed): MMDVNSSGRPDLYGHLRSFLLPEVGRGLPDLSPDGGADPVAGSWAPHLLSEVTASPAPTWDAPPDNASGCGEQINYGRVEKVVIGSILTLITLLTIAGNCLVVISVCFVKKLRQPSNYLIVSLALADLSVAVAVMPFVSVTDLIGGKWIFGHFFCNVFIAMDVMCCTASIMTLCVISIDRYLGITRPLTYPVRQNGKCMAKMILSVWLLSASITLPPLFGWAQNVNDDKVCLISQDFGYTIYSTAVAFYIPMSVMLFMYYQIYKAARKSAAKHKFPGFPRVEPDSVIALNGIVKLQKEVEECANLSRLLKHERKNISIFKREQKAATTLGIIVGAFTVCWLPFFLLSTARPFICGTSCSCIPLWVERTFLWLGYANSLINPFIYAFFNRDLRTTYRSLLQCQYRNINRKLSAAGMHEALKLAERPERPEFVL
5-HT7(a) receptor, sequence (P34969 1-445 isoform P34969-2): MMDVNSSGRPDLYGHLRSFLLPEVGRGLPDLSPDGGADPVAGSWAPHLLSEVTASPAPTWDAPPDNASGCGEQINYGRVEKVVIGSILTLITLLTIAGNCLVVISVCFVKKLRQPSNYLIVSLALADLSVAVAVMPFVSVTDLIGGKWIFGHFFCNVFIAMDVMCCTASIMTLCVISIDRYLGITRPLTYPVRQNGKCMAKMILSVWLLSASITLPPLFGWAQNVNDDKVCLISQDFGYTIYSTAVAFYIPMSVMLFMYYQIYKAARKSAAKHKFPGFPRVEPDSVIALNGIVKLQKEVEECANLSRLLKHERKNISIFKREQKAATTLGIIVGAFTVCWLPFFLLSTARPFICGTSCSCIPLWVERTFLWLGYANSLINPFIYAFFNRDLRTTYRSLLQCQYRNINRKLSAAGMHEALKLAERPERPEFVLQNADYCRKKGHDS
5-HT7(d) receptor, sequence (P34969 whole entry): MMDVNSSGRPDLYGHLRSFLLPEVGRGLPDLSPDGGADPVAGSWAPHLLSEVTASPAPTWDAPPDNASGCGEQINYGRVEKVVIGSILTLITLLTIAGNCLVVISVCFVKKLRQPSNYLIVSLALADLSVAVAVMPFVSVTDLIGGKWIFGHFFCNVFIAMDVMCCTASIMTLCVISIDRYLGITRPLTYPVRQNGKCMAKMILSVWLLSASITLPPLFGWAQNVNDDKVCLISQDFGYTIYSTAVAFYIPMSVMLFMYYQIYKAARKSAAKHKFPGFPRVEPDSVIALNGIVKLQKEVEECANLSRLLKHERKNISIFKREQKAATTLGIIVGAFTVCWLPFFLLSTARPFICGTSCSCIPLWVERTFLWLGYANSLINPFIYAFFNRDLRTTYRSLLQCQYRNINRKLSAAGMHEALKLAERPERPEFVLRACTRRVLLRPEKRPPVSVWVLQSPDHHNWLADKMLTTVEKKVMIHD

Regarding `CN1C[C@@H](NS(=O)(=O)N(C)C)C[C@@H]2c3cccc4c3c(cn4C)C[C@H]21` [mesulergine, N′-[(8a)-1,6-dimethylergolin-8-yl]-N,N-dimethylsulfamide hydrochloride], the Kd at 5-HT7(b) receptor [1] came to 6.2 ± 0.7 nM; at 5-HT7(d) receptor, 9.6 ± 1.2 nM; at 5-HT7(a) receptor it was 9.2 ± 1.6 nM. For the same compound, the negative-log EC50 (pEC50) at 5-HT7(b) receptor [2] was found to be 8.7 ± 0.1.
